Reference: patent US11213508B2, “Compositions comprising urolithins and uses thereof for the stimulation of insulin secretion” (Centre National de la Recherche Scientifique (CNRS), priority 2013, dated 2022)
“Also recorded” adds a separate entry of the source.

How the values were obtained:
[1] = tested on: INS-1 insulin-secreting β-cells; assay: Exendin + glucose-stimulated insulin secretion in INS-1 cells; format: cell-based; conditions: 8.3 mmol·L^−1 glucose + 0.001 μmol·L^−1 exendin; for maximal response, stimulation as compared to exendin alone: 20
Method: (§1) The insulin-secreting cell line INS-1 (a gift from Professor C. B. Wollheim) was cultured in RPMI-1640, supplemented with 10% fetal calf serum (FCS), 100 U·mL^−1 penicillin, 100 μg·mL^−1 streptomycin, 2 mmol·L^−1 L-glutamine, 10 mmol·L^−1 HEPES, 1 mmol·L^−1 sodium pyruvate, and […] 2-mercaptoethanol, as previously described by Youl et al. (2010). Cells were seeded in 24-well plates (4×10^5 cells per well) and were used for experiments after 5 days of culture.
(§2) Before the treatment, RPMI medium was removed and the cells were washed twice with HEPES-balanced Krebs-Ringer bicarbonate buffer (KRB) containing (in mmol·L^−1): 123 NaCl, 5.4 KCl, 1.3 KH2PO4, 2.7 MgSO4, 2.9 CaCl2, 5 NaHCO3 and 20 HEPES, pH 7.5, with 2 g·L^−1 bovine serum albumin (KRB/BSA). Cells were incubated for 1 h (5% CO2, 37° C.) in KRB medium containing 8.3 mmol·L^−1 glucose (glucose-stimulated secretion) in the presence or absence of the compounds tested. At the end of the 1 h incubation period, the medium was sampled and stored at −20° C. until the insulin assay. Insulin concentration in cell supernatants was determined using the homogeneous time resolved fluorescence technology (HTRF), according to the manufacturer's instructions (HTRF insulin assay kit, Cisbio International, Bagnols-sur-Ceze, France). Briefly, two anti-insulin antibodies were used; one labelled with Eu^3+-Cryptate and one labelled with XL665 recognizing distinct epitopes. When these two fluorophores bind to insulin molecules, the two antibodies come into close proximity, allowing fluorescence resonance energy transfer (FRET) to occur between the Eu^3+-Cryptate and the XL665. This FRET increases proportionally with the insulin concentrations. All the experiments were performed at least in quadruplicate.
Material and methods were the same as described in example 1. For the determination of insulin secretion, cells were incubated for 1 h (5% CO2, 37° C.) in KRB medium containing 8.3 mmol·L^−1 glucose (glucose-stimulated condition) and exendin (0.001 μmol·L^−1) in the presence or absence of the compounds tested. Data were expressed as percent of exendin (0.001 μmol·L^−1)+glucose (8.3 mmol·L^−1)-stimulated insulin secretion (“control 100%”) (FIGS. 4A-D).

[2] = tested on: INS-1 insulin-secreting β-cells; assay: Glibenclamide-stimulated insulin secretion in INS-1 cells; format: cell-based; conditions: for stimulation of insulin secretion in the presence of glibenclamide: 0 to 20 μmol·L^−1
Method: as §1, §2
Material and methods were the same as described in example 1. For the determination of insulin secretion, cells were incubated for 1 h (5% CO2, 37° C.) in KRB medium containing 1.4 mmol·L^−1 glucose (low-glucose condition) and 0.01 μmol·L^−1 glibenclamide (glibenclamide-stimulated secretion), in the presence or absence of urolithins. At the end of the 1 h incubation period, the medium was sampled and stored at −20° C. until the insulin assay. Insulin concentration in cell supernatants was determined as described in Example 1.

[3] = tested on: rat isolated perfused pancreas; assay: Insulin secretion in the rat isolated perfused pancreas; conditions: for AUC of insulin produced above the basal level: urolithins 10 μM
Method: Pancreas was isolated from male Wistar rats of 250-300 g body weight under pentobarbital anaesthesia (60 mg/kg i.p.). Previously described technique (Cadene et al., 1996) was used to isolate the pancreas from neighboring tissues. The organ was then transferred into a plastic chamber maintained at 37.5° C. Perfusion medium was Krebs-Ringer bicarbonate buffer containing 2 g/l bovine serum albumin and 5 mmol·L^−1 (non stimulant condition) or 8.3 mmol·L^−1 (stimulant condition) glucose, and continuously bubbled with a mixture of 95% O2/5% CO2. Infusion pressure was selected to provide a pancreatic outflow of 2.5 ml/min. The first sample was taken 30 min after initiation of perfusion to allow for an adaptation period. Two additional control samples were collected 10 and 15 min later, immediately followed by switching to the same buffer containing urolithins (10 μmol·L^−1). Pancreatic effluents were then collected at the following times (minutes): 17, 18, 19, 20, 21, 27, 32, 42. Pancreas was then washed using the same buffer in the absence of urolithin. Two additional samples were taken 5 and 15 min after urolithin withdrawal.
All samples were collected for 1 min allowing determinations of pancreatic effluent output, and immediately frozen for insulin assay (Cisbio HTRF method). Insulin output rate (ng/min) was calculated by multiplying the hormone concentration (ng/ml) in the effluent by the corresponding flow rate (ml/min).
Amplitude of stimulation of insulin secretion by urolithins was estimated by calculating the Area Under the Curve (AUC) of insulin produced above the basal level (trapezoidal rule). Before administration of urolithins, insulin secretion levels were 3.39±0.58 ng/min (n=14 pancreases) and 67.5±7.80 ng/min (n=15 pancreases), for 5 mmol·L^−1 and 8.3 mmol·L^−1 glucose, respectively.

[4] = tested on: INS-1 insulin-secreting β-cells; assay: Insulin secretion in INS-1 cells in the presence of oxidative stress (H2O2); format: cell-based; conditions: 8.3 mmol·L^−1 glucose + H2O2; for concentration active in preventing insulin secretion impairment induced by H2O2: lowest active concentration
Method: as §2
For protection experiments, INS-1 cells were pre-incubated with the indicated concentrations of urolithins for one hour (5% CO2, 37° C.) in RPMI medium. After two washes in HEPES-balanced Krebs-Ringer bicarbonate buffer (123 mmol·L^−1 NaCl, 5.4 mmol·L^−1 KCl, 1.3 mmol·L^−1 KH2PO4, 2.7 mmol·L^−1 MgSO4, 2.9 mmol·L^−1 CaCl2, 5 mmol·L^−1 NaHCO3 and 20 mmol·L^−1 HEPES, pH 7.5) containing 2 g·L^−1 bovine serum albumin (KRB/BSA), INS-1 cells were incubated for one hour (5% CO2, 37° C.) in KRB/BSA containing urolithins at the indicated concentrations in the presence of 1.4 mmol·L^−1 glucose (basal condition) or 8.3 mmol·L^−1 glucose (stimulant condition). When used, H2O2 (50 gmol·L^−1) was added at the beginning of the one-hour incubation period. Control experiments were performed in the basal condition, in the absence of urolithins during the pre-incubation and incubation periods.
Insulin secretion was determined as described above by measuring insulin accumulation after a one-hour incubation period.

[5] = 1.4 mmol·L^−1 glucose + 0.01 μmol·L^−1 glibenclamide

O=c1oc2cc(O)ccc2c2ccc(O)cc12 [Urolithin A, urolithin A]
raise of insulin secretion in the presence of exendin and glucose [1]: did not induce a significant raise of insulin secretion; also recorded: did not amplify exendin-stimulated insulin secretion
stimulation of insulin secretion in the presence of glibenclamide [2]: concentration-dependently stimulated insulin secretion
concentration at which maximal effect was obtained [2, 5]: 5 µmol/L
AUC of insulin produced above the basal level [3]: 2609.5 ng insulin secreted for 32 min
concentration active in preventing insulin secretion impairment induced by H2O2 [4]: 20 µM

O=c1oc2cc(O)ccc2c2ccccc12 [Urolithin B, urolithin B]
raise of insulin secretion in the presence of exendin and glucose [1]: did not induce a significant raise of insulin secretion; also recorded: did not amplify exendin-stimulated insulin secretion
stimulation of insulin secretion in the presence of glibenclamide [2]: concentration-dependently stimulated insulin secretion
maximal response, stimulation as compared to glibenclamide alone [2, 5]: 130%
AUC of insulin produced above the basal level [3]: 142.0 ng insulin secreted for 32 min
insulin secretion stimulation as compared to control conditions ([4]; 20 μmol·L^−1): 200%
insulin secretion stimulation as compared to control conditions [4]: 150%
concentration active in preventing insulin secretion impairment induced by H2O2 [4]: 5 µM

O=c1oc2cc(O)ccc2c2cc(O)c(O)cc12 [Urolithin C, urolithin C]
raise of insulin secretion in the presence of exendin and glucose [1]: induced a significant concentration-dependent stimulation of insulin secretion
maximal response, stimulation as compared to exendin alone [1]: about 185%
stimulation of insulin secretion in the presence of glibenclamide [2]: concentration-dependently stimulated insulin secretion
EC50 [2, 5]: ~5 µM
maximal response, stimulation as compared to glibenclamide alone [2, 5]: about 200%
stimulation of glibenclamide-induced response ([2]; urolithin 5 μmol·L^−1, 1.4 mmol·L^−1 glucose + 0.01 μmol·L^−1 glibenclamide): about 150%
effect on insulin secretion under non-stimulating glucose condition ([3]; 10 μmol·L^−1, 5 mmol·L^−1 glucose): had no effect
effect on insulin secretion under stimulating glucose condition ([3]; 10 μmol·L^−1, 8.3 mmol·L^−1 glucose): induced a major amplification
lowest concentration inducing some stimulation of insulin secretion ([3]; stimulating glucose condition): 1 µM
AUC of insulin produced above the basal level [3]: 9160.0 ng insulin secreted for 32 min
insulin secretion stimulation as compared to control conditions ([4]; 20 μmol·L^−1): 200%
concentration active in preventing insulin secretion impairment induced by H2O2 [4]: 5 µM

O=c1oc2c(O)c(O)ccc2c2cc(O)c(O)cc12 [Urolithin D, urolithin D]
raise of insulin secretion in the presence of exendin and glucose [1]: induced a significant concentration-dependent stimulation of insulin secretion
maximal response, stimulation as compared to exendin alone [1]: 140%
stimulation of insulin secretion in the presence of glibenclamide [2]: concentration-dependently stimulated insulin secretion
AUC of insulin produced above the basal level [3]: 387.5 ng insulin secreted for 32 min
concentration active in preventing insulin secretion impairment induced by H2O2 [4]: 5 µM
